What follows are molecules tested against Serine/threonine-protein phosphatase 5 (Homo sapiens) (UniProt P53041) (assay: Inhibition of His-tagged PP5 (unknown origin) expressed in Escherichia coli BL21 cells using para-nitrophenyl phosphate as substrate incubated for 5 to 10 mins by microplate reader based spectrophotometric analysis).
Chain of Serine/threonine-protein phosphatase 5 (Homo sapiens) (P53041 whole entry, looked up): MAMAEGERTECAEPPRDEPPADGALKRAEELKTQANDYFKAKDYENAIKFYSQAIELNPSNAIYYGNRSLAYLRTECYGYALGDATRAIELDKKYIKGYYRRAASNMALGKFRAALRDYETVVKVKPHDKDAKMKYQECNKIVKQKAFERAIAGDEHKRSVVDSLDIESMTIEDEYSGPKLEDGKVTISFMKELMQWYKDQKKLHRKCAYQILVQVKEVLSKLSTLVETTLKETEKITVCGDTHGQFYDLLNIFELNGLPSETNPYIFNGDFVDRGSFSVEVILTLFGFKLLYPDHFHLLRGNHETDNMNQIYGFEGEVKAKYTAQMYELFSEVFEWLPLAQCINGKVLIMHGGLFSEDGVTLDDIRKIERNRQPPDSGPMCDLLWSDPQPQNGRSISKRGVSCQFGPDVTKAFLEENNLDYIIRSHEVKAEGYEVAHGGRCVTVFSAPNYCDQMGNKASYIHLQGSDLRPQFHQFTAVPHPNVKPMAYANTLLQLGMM

Compound | IC50 [µM]
O=C(Nc1nc2ccccc2s1)C(c1ccccc1)S(=O)(=O)O (centres undefined) | > 200
O=C(Nc1ccc(N2CCOCC2)cc1)C(c1ccccc1)S(=O)(=O)O (centres undefined) | > 200
O=C(Nc1cnc2ccccc2c1)C(c1ccccc1)S(=O)(=O)O (centres undefined) | > 200
O=C(Nc1ccc2nc(C(F)(F)F)[nH]c2c1)C(c1ccccc1)S(=O)(=O)O (centres undefined) | > 200

— BindingDB's records for doi:10.1021/acs.jmedchem.6b00993 (Purdue University, 2016)
